Consider six molecules from patent publication US20090018134A1, “Compounds - 945” (AstraZeneca AB, priority 2007, published 2009).

What all share (format): biochemical
The target of test [1] is T1, mTOR (Homo sapiens, UniProt P42345).
T1 construct: FLAG; made in house
As to the kind of experiment: In Vitro mTOR Kinase Assay (Echo), Test (a)(ii). Summed up:
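FLAG-tagged human mTOR truncation (residues 1362-2549) expressed in HEK293 cells and FLAG-purified. Compounds dispensed acoustically, reaction 2 h at room temperature, stopped with EDTA. Phosphorylation of biotinylated peptide detected by AlphaScreen with anti-p70 S6K (T389) antibody overnight; IC50 reported.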

For a further test, the target named is T2, p110α Type Ia human PI3K (Homo sapiens, UniProt P42336).
T2 construct: full length DNA of each of the p110α, p110β and p110δ Type Ia human PI3K p110 isoforms; 6-His; made in house
T2 sequence (P42336 whole entry, canonical isoform): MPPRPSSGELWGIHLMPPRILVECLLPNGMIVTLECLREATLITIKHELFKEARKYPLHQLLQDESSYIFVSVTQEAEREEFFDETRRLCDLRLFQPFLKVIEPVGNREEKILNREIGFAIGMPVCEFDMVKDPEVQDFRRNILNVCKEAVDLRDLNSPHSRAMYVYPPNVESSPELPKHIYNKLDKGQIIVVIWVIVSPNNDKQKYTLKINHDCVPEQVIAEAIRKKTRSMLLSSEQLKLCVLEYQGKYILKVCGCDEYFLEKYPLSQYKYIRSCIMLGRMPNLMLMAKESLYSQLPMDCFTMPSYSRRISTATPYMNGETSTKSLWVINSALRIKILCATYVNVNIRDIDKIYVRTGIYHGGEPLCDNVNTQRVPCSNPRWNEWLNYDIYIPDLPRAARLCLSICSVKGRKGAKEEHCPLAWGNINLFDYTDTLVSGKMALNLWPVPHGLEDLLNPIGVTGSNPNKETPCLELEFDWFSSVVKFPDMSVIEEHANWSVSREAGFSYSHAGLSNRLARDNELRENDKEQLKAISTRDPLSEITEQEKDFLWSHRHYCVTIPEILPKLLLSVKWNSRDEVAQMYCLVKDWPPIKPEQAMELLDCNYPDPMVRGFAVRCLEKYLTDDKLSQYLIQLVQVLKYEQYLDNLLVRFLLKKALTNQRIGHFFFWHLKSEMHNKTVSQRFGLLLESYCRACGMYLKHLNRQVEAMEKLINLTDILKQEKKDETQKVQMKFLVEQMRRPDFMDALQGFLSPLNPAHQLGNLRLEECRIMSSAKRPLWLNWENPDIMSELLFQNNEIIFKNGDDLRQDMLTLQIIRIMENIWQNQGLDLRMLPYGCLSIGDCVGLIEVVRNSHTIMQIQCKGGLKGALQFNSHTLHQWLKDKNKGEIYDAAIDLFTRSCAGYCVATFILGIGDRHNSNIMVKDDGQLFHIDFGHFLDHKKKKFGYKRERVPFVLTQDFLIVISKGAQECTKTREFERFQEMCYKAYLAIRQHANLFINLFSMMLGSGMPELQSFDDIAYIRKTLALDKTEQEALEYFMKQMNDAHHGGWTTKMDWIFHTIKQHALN
T2 sequence (P27986 whole entry partner, canonical isoform): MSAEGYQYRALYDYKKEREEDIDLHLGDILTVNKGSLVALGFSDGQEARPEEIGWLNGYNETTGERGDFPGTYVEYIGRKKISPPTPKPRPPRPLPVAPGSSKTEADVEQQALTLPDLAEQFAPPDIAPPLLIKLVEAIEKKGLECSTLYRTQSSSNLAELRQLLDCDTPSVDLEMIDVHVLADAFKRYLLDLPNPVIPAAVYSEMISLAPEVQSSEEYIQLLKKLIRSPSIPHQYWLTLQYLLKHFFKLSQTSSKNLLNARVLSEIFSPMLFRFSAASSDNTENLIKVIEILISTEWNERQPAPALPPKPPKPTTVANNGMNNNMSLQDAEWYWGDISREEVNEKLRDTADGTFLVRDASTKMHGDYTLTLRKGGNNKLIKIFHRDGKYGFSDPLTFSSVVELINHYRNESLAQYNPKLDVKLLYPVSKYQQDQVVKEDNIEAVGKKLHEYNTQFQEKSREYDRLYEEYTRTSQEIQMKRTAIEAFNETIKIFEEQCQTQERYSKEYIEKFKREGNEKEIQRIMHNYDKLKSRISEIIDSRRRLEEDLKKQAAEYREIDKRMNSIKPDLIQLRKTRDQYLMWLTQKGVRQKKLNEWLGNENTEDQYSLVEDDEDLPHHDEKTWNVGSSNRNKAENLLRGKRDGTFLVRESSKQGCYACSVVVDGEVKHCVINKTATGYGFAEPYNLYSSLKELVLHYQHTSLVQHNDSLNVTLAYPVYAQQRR
As to the kind of experiment: In Vitro PI3K Enzyme Assay (AlphaScreen), Test (b)(i), p110α. The conditions noted are these: read-out: IC50 versus p110α Type Ia human PI3K. The source says:
(b)(i) In Vitro PI3K Enzyme Assay
The assay used AlphaScreen technology (Gray et al., Analytical Biochemistry, 2003, 313: 234-245) to determine the ability of test compounds to inhibit phosphorylation by recombinant Type I PI3K enzymes of the lipid PI(4,5)P2.
DNA fragments encoding human PI3K catalytic and regulatory subunits were isolated from cDNA libraries using standard molecular biology and PCR cloning techniques. The selected DNA fragments were used to generate baculovirus expression vectors. In particular, full length DNA of each of the p110α, p110β and p110δ Type Ia human PI3K p110 isoforms (EMBL Accession Nos. HSU79143, S67334, Y10055 for p110α, p110β and p110δ respectively) were sub-cloned into a pDEST10 vector (Invitrogen Limited, Fountain Drive, Paisley, UK). The vector is a Gateway-adapted version of Fastbac1 containing a 6-His epitope tag. […]
Biotinylated-DiC8-PI(3,4,5)P3 (50 nM; Cell Signals Inc., Catalogue No. 107), recombinant purified GST-Grp1 PH protein (2.5 nM) and AlphaScreen Anti-GST donor and acceptor beads (100 ng; Packard Bioscience Limited, Station Road, Pangbourne, Berkshire, UK, Catalogue No. 6760603M) were added and the assay plates were left for about 5 to 20 hours at room temperature in the dark. The resultant signals arising from laser light excitation at 680 nm were read using a Packard AlphaQuest instrument. […]

The target in test [2] is T1, mTOR. As to the kind of experiment: mTOR Kinase Assay (Echo).
Setting [3] is: table of enzyme assay Test (a)(ii), read-out: Test (a)(ii) IC50.

pIC50: −log10 of the molar value.

T1 sequence (P42345 1362-2549): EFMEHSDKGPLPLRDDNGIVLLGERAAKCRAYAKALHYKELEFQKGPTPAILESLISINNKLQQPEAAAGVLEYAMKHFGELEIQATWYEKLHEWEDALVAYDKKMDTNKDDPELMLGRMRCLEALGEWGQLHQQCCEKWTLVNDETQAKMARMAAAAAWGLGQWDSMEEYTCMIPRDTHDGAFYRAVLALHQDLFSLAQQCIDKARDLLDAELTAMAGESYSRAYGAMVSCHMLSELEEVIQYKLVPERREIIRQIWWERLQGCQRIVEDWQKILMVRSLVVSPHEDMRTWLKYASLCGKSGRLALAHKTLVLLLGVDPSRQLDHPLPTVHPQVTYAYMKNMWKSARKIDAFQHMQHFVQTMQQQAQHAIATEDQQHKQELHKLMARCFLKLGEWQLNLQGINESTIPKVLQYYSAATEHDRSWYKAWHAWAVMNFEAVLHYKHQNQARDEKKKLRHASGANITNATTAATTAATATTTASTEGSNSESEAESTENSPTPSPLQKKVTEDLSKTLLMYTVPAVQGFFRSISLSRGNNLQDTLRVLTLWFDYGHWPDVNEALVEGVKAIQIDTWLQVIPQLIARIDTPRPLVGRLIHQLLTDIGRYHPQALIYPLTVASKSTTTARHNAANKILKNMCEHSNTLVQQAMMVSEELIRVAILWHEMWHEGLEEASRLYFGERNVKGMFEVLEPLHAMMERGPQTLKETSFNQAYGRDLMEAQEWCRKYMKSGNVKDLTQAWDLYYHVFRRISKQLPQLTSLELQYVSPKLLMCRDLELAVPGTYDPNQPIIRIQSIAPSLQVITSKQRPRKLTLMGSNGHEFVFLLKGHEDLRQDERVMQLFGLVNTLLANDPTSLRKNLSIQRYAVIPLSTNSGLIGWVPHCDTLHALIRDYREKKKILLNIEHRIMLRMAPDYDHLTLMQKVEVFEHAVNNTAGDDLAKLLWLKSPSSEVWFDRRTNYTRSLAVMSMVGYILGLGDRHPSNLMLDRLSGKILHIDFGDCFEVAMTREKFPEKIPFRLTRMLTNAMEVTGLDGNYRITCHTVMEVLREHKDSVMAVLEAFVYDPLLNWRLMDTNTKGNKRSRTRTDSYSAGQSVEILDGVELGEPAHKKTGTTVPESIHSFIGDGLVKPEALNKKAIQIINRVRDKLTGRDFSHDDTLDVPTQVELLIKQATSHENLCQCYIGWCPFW

On to `C[C@H]1COCCN1c1cc(C2(S(C)(=O)=O)CC2)nc(-c2ccc(NC(=O)Nc3cnn(C)c3)cc2)n1` [Example 2b, 1-[4-[4-[(3S)-3-methylmorpholin-4-yl]-6-(1-methylsulfonylcyclopropyl)pyrimidin-2-yl]phenyl]-3-(1-methylpyrazol-4-yl)urea], for which the pIC50 on mTOR [1] (read-out: mTOR Kinase Assay (Echo)) is 9.77; at p110α Type Ia human PI3K, 5.98.
In the case of `CCNC(=O)Nc1ccc(-c2nc(N3CCOCC3)cc(C3(S(=O)(=O)c4nc(C)cs4)CC3)n2)cc1` [Example 42d, 1-ethyl-3-[4-[4-[1-[(4-methyl-1,3-thiazol-2-yl)sulfonyl]cyclopropyl]-6-morpholin-4-ylpyrimidin-2-yl]phenyl]urea], the pIC50 on mTOR [2] was 9.37; at mTOR [1] (setting [3]) it was 9.22.
For the molecule `CCNC(=O)Nc1ccc(-c2nc(N3CCOC[C@@H]3C)cc(C3(S(=O)(=O)CCNC(C)=O)CC3)n2)cc1` [Example 45, N-[2-[1-[2-[4-(Ethylcarbamoylamino)phenyl]-6-[(3S)-3-methylmorpholin-4-yl]pyrimidin-4-yl]cyclopropyl]sulfonylethyl]acetamide], the pIC50 is 7.66 against mTOR [2] and 8.14 on mTOR [1] (setting [3]).
For the molecule `CNC(=O)Nc1ccc(-c2nc(N3CCOC[C@@H]3C)cc(C3(S(=O)(=O)c4ccc(F)cn4)CC3)n2)cc1` [Example 48, 1-[4-[4-[1-(5-Fluoropyridin-2-yl)sulfonylcyclopropyl]-6-[(3S)-3-methylmorpholin-4-yl]pyrimidin-2-yl]phenyl]-3-methylurea], the pIC50 was 8.60 on mTOR [2] and 9.14 on mTOR [1] (setting [3]).
For the molecule `C[C@H]1COCCN1c1cc(C2(S(=O)(=O)c3ccc(F)cn3)CC2)nc(-c2ccc(NC(=O)NC3CC3)cc2)n1` [Example 48a, 3-cyclopropyl-1-[4-[4-[1-(5-fluoropyridin-2-yl)sulfonylcyclopropyl]-6-[(3S)-3-methylmorpholin-4-yl]pyrimidin-2-yl]phenyl]urea], the results for the pIC50 on mTOR [2] and on mTOR [1] (setting [3]) were 8.99 and 8.94, respectively.
Consider `C[C@H]1COCCN1c1cc(C2(S(C)(=O)=O)CC2)nc(-c2ccc(NC(=O)Nc3cnn(C)c3)c(F)c2)n1` [Example 52d, 1-[2-fluoro-4-[4-[(3S)-3-methylmorpholin-4-yl]-6-(1-methylsulfonylcyclopropyl)pyrimidin-2-yl]phenyl]-3-(1-methylpyrazol-4-yl)urea], for which the results for the pIC50 on mTOR [2] and at mTOR [1] (setting [3]) were 7.97 and 8.23, respectively.
